The assay concerns the target T1, IRAK4 (Homo sapiens, UniProt Q9NWZ3).
T1 construct: knocking-in a HiBiT fusion tag into the C-terminal of the IRAK4 gene in 293T cells; host or cells: 293T cells, knock-in of HiBiT at the endogenous IRAK4 locus
T1 sequence (Q9NWZ3 1-460): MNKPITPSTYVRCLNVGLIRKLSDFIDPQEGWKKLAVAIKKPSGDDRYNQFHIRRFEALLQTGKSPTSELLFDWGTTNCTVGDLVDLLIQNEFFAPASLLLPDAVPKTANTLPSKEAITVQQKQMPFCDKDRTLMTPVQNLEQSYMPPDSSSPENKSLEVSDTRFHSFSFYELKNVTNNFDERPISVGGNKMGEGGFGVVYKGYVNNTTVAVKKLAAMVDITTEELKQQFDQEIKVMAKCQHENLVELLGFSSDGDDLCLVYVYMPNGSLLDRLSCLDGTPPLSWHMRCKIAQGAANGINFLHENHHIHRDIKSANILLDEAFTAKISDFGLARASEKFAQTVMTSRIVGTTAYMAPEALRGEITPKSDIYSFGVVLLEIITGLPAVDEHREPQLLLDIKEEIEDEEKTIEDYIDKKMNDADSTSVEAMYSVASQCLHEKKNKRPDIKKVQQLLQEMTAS
As to the kind of experiment: IRAK4 degradation assay using the HiBiT Method. It is filed as cell-based. Conditions: 293T cells expressing HiBiT-tagged IRAK4; 6-hour incubation; Nano-Glo HiBiT Lytic Assay luminescence. The procedure:
Selected compounds were tested in an IRAK4 degradation assay using the HiBiT Method.
Phenol red-free Dulbecco's modified Eagle medium (DMEM) and fetal bovine serum (FBS) were purchased from Gibco (Grand Island, NY, USA). The Nano-Glo© HiBiT Lytic Assay System was purchased from Promega (Madison, WI, USA). Cell culture flasks and 384-well microplates were acquired from VWR (Radnor, PA, USA). The 293T cell line was engineered by knocking-in a HiBiT fusion tag into the C-terminal of the IRAK4 gene in 293T cells (Synthego, Redwood City, CA, USA).
IRAK4 degradation was measured via the quantification of luminescent signals using the Nano-Glo© HiBiT Lytic Assay kit. Test compounds were added to 384-well plates in duplicate using an 11-point half-log dilution series, with the highest dose set at 10 mM. 293T cells expressing HiBiT-tagged IRAK4 were then added into 384-well plates at a cell density of 10,000 cells per well. The plates were kept at 37° C. with 5% CO2 for 6 hours. Cells that were treated only with DMSO served as the negative control; wells that contained only assay media served as the background control. After the 6-hour incubation, Nano-Glo® HiBiT Lytic Assay reagents were added to the cells. Luminescence was acquired using an EnVision® Multilabel Reader (PerkinElmer, Santa Clara, CA, USA).
In general terms: With HiBiT, luminescence reflects the tagged protein that the partner subunit can reach.

By DC50 is commonly meant the concentration giving 50% degradation. A lower DC50 goes with a more potent degrader.

`CC(C)Oc1cc2nc(C3CCN(CC(=O)N4CCN(c5cc6c(cc5F)c(N5CCC(=O)NC5=O)nn6C)CC4)CC3)cn2cc1NC(=O)c1cccc(C(F)(F)F)n1` [Example 18, N-(2-(1-(2-(4-(3-(2,4-dioxotetrahydropyrimidin-1(2H)-yl)-5-fluoro-1-methyl-1H-indazol-6-yl)piperazin-1-yl)-2-oxoethyl)piperidin-4-yl)-7-isopropoxyimidazo[1,2-a]pyridin-6-yl)-6-(trifluoromethyl)picolinamide] gave a DC50 of 10 to 100 nM.
As for `CC(C)Oc1cc2nc(C3CCN(CC(=O)N4CCN(CCc5ccc(NC6CCC(=O)NC6=O)cc5)CC4)CC3)cn2cc1NC(=O)c1cccc(C(F)(F)F)n1` (centres unmarked) [Example 19, N-[2-[1-[2-[4-[2-[4-[(2,6-dioxo-3-piperidyl)amino]phenyl]ethyl]piperazin-1-yl]-2-oxo-ethyl]-4-piperidyl]-7-isopropoxy-imidazo[1,2-a]pyridin-6-yl]-6-(trifluoromethyl) pyridine-2-carboxamide], the figure is 10 to 100 nM; as for `CC(C)Oc1cc2nc(C3CCN(CC(=O)N4CCN(Cc5ccc(NC6CCC(=O)NC6=O)cc5)CC4)CC3)cn2cc1NC(=O)c1cccc(C(F)(F)F)n1` (centres unmarked) [Example 20, N-[2-[1-[2-[4-[[4-[(2,6-dioxo-3-piperidyl)amino]phenyl]methyl]piperazin-1-yl]-2-oxo-ethyl]-4-piperidyl]-7-isopropoxy-imidazo[1,2-a]pyridin-6-yl]-6-(trifluoromethyl) pyridine-2-carboxamide], 100 to 500 nM.
`CC(C)Oc1cc2nc(C3CCN(CC(=O)N4CCC(c5ccc(OC6CCC(=O)NC6=O)cc5)CC4)CC3)cn2cc1NC(=O)c1cccc(C(F)(F)F)n1` (centres unmarked) [Example 21, N-[2-[1-[2-[4-[4-[(2,6-dioxo-3-piperidyl)oxy]phenyl]-1-piperidyl]-2-oxo-ethyl]-4-piperidyl]-7-isopropoxy-imidazo[1,2-a]pyridin-6-yl]-6-(trifluoromethyl)pyridine-2-carboxamide]: the 50% degradation concentration (DC50) was in the range of 10 to 100 nM.
The value for `CC(C)Oc1cc2nc(C3CCN(CC(=O)N4CCN(c5ccc(C6CCC(=O)NC6=O)cc5)CC4)CC3)cn2cc1NC(=O)c1cccc(C(F)(F)F)n1` (centres unmarked) [Example 22, N-[2-[1-[2-[4-[4-(2,6-dioxo-3-piperidyl)phenyl]piperazin-1-yl]-2-oxo-ethyl]-4-piperidyl]-7-isopropoxy-imidazo[1,2-a]pyridin-6-yl]-6-(trifluoromethyl)pyridine-2-carboxamide] was 10 to 100 nM; that for `CC(C)Oc1cc2nc(C3CCN(CC(=O)N4CCC(c5ccc(NC6CCC(=O)NC6=O)cc5)CC4)CC3)cn2cc1NC(=O)c1cccc(C(F)(F)F)n1` (centres unmarked) [Example 23, N-[2-[1-[2-[4-[4-[(2,6-dioxo-3-piperidyl)amino]phenyl]-1-piperidyl]-2-oxo-ethyl]-4-piperidyl]-7-isopropoxy-imidazo[1,2-a]pyridin-6-yl]-6-(trifluoromethyl)pyridine-2-carboxamide] was 10 to 100 nM.
As for `CC(C)Oc1cc2nc(C3CCN(CC(=O)N4CCC(c5ccc(NC6CCC(=O)NC6=O)cc5F)CC4)CC3)cn2cc1NC(=O)c1cccc(C(F)(F)F)n1` (centres unmarked) [Example 24, N-[2-[1-[2-[4-[4-[(2,6-dioxo-3-piperidyl)amino]-2-fluoro-phenyl]-1-piperidyl]-2-oxo-ethyl]-4-piperidyl]-7-isopropoxy-imidazo[1,2-a]pyridin-6-yl]-6-(trifluoromethyl)pyridine-2-carboxamide], the figure is 10 to 100 nM; as for `CC(C)Oc1cc2nc(C3CCN(CC(=O)N4CCC(c5ccc(CN6CCC(=O)NC6=O)cc5)CC4)CC3)cn2cc1NC(=O)c1cccc(C(F)(F)F)n1` [Example 25, N-[2-[1-[2-[4-[4-[(2,4-dioxohexahydropyrimidin-1-yl)methyl]phenyl]-1-piperidyl]-2-oxo-ethyl]-4-piperidyl]-7-isopropoxy-imidazo[1,2-a]pyridin-6-yl]-6-(trifluoromethyl) pyridine-2-carboxamide], 100 to 500 nM.
The value for `CC(C)Oc1cc2nc(C3CCN(CC(=O)N4CCN(c5ccc6c(N7CCC(=O)NC7=O)nn(C)c6c5)CC4)CC3)cn2cc1NC(=O)c1cccc(C(F)(F)F)n1` [Example 26, N-[2-[1-[2-[4-[3-(2,4-dioxohexahydropyrimidin-1-yl)-1-methyl-indazol-6-yl]piperazin-1-yl]-2-oxo-ethyl]-4-piperidyl]-7-isopropoxy-imidazo[1,2-a]pyridin-6-yl]-6-(trifluoromethyl)pyridine-2-carboxamide] was 100 to 500 nM; that for `CC(C)Oc1cc2nc(C3CCN(CC(=O)N4CCN(c5ccc(NC6CCC(=O)NC6=O)cc5)CC4)CC3)cn2cc1NC(=O)c1cccc(C(F)(F)F)n1` (centres unmarked) [Example 27, N-[2-[1-[2-[4-[4-[(2,6-dioxo-3-piperidyl)amino]phenyl]piperazin-1-yl]-2-oxo-ethyl]-4-piperidyl]-7-isopropoxy-imidazo[1,2-a]pyridin-6-yl]-6-(trifluoromethyl)pyridine-2-carboxamide] was 100 to 500 nM.
In turn, `CC(C)Oc1cc2nc(C3CCN(CC(=O)N4CCN(c5ccc(OC6CCC(=O)NC6=O)cc5)CC4)CC3)cn2cc1NC(=O)c1cccc(C(F)(F)F)n1` (centres unmarked) [Example 28, N-[2-[1-[2-[4-[4-[(2,6-dioxo-3-piperidyl)oxy]phenyl]piperazin-1-yl]-2-oxo-ethyl]-4-piperidyl]-7-isopropoxy-imidazo[1,2-a]pyridin-6-yl]-6-(trifluoromethyl)pyridine-2-carboxamide] gave a half-maximal degradation concentration (DC50) of 10 to 100 nM.
The value for `CC(C)Oc1cc2nc(C3CCN(CC(=O)N4CCC(c5ccc(C6CCC(=O)NC6=O)cc5)CC4)CC3)cn2cc1NC(=O)c1cccc(C(F)(F)F)n1` (centres unmarked) [Example 29, N-[2-[1-[2-[4-[4-(2,6-dioxo-3-piperidyl)phenyl]-1-piperidyl]-2-oxo-ethyl]-4-piperidyl]-7-isopropoxy-imidazo[1,2-a]pyridin-6-yl]-6-(trifluoromethyl)pyridine-2-carboxamide] was 10 to 100 nM; that for `CC(C)Oc1cc2nc(C3CCN(CCC(=O)N4CCC(c5ccc(NC6CCC(=O)NC6=O)cc5)CC4)CC3)cn2cc1NC(=O)c1cccc(C(F)(F)F)n1` (centres unmarked) [Example 30, N-[2-[1-[3-[4-[4-[(2,6-dioxo-3-piperidyl)amino]phenyl]-1-piperidyl]-3-oxo-propyl]-4-piperidyl]-7-isopropoxy-imidazo[1,2-a]pyridin-6-yl]-6-(trifluoromethyl)pyridine-2-carboxamide] was 100 to 500 nM.
The value for `CC(C)Oc1cc2nc(C3CCN(CCC(=O)N4CCC(c5ccc(NC6CCC(=O)NC6=O)cc5F)CC4)CC3)cn2cc1NC(=O)c1cccc(C(F)(F)F)n1` (centres unmarked) [Example 31, N-[2-[1-[3-[4-[4-[(2,6-dioxo-3-piperidyl)amino]-2-fluoro-phenyl]-1-piperidyl]-3-oxo-propyl]-4-piperidyl]-7-isopropoxy-imidazo[1,2-a]pyridin-6-yl]-6-(trifluoromethyl)pyridine-2-carboxamide] was 100 to 500 nM.
For `CC(C)Oc1cc2nc(C3CCN(CCC(=O)N4CCC(c5ccc(C6CCC(=O)NC6=O)cc5)CC4)CC3)cn2cc1NC(=O)c1cccc(C(F)(F)F)n1` (centres unmarked) [Example 32, N-[2-[1-[3-[4-[4-(2,6-dioxo-3-piperidyl)phenyl]-1-piperidyl]-3-oxo-propyl]-4-piperidyl]-7-isopropoxy-imidazo[1,2-a]pyridin-6-yl]-6-(trifluoromethyl)pyridine-2-carboxamide], the 50% degradation concentration (DC50) lay within 100 to 500 nM.
The value for `CC(C)Oc1cc2nc(C3CCN(CCC(=O)N4CCN(c5ccc(OC6CCC(=O)NC6=O)cc5)CC4)CC3)cn2cc1NC(=O)c1cccc(C(F)(F)F)n1` (centres unmarked) [Example 33, N-[2-[1-[3-[4-[4-[(2,6-dioxo-3-piperidyl)oxy]phenyl]piperazin-1-yl]-3-oxo-propyl]-4-piperidyl]-7-isopropoxy-imidazo[1,2-a]pyridin-6-yl]-6-(trifluoromethyl)pyridine-2-carboxamide] was 100 to 500 nM; that for `CC(C)Oc1cc2nc(C3CN(CCC(=O)N4CCC(c5ccc(NC6CCC(=O)NC6=O)cc5)CC4)C3)cn2cc1NC(=O)c1cccc(C(F)(F)F)n1` (centres unmarked) [Example 34, N-[2-[1-[3-[4-[4-[(2,6-dioxo-3-piperidyl)amino]phenyl]-1-piperidyl]-3-oxo-propyl]azetidin-3-yl]-7-isopropoxy-imidazo[1,2-a]pyridin-6-yl]-6-(trifluoromethyl)pyridine-2-carboxamide] was 100 to 500 nM.

(Values after US20250018046A1, “COMPOUNDS FOR TARGETING DEGRADATION OF IRAK4 PROTEINS” (BIOGEN MA INC, priority 2021, published 2025).)
